{"source": "paper PMC11079064", "about": "“Discovery of a brain penetrant small molecule antagonist targeting LPA1 receptors to reduce neuroinflammation and promote remyelination in multiple sclerosis” (Scientific Reports, 2024)", "key": {"[1]": {"tested_on": "mouse cortical brain slices", "assay": "Lysolecithin-treated mouse organotypic slice culture, Mbp transcript", "type": "cell-based", "settings": "lysolecithin 18 h, then 3 days treatment; read-out: EC50 of Mbp transcript increase", "procedure": "We next used an ex vivo organotypic brain slice culture to assess remyelination following a demyelinating insult. Mouse cortical brain slices were treated with lysolecithin, which induces acute demyelination through a non-specific lipid-based mechanism. […] After 3 additional days, the brain slices were processed for Mbp.\nEvaluation of Mbp transcript in mouse brain slice culture: Brains were collected from P17 mice and placed into ice cold HBSS containing 20% FBS. Brains were bisected sagittally and 250 µm coronal slices made with a manual tissue chopper. Only slices anterior to the hippocampus displaying a discrete corpus callosum were used. Approximately 12 slices are obtained per animal. Slices were laid on a 30 mm MilliCell organotypic culture insert in a 6-well culture dish containing 1.1 mL growth media (DMEM, 25% HBSS-Ca^2+/-Mg^2+, 25% heat inactivated horse serum, glucose (5 g/l), 25 mM ascorbic acid and penicillin/streptomycin). Slices were cultured in vitro for 72 h with a 50% media change at 24 h. After 72 h, slices were demyelinated using media containing 0.5 mg/ml lysolecithin for 18 h. […] Slices were snap frozen and RNA extracted using the RNEasy Mini kit (Qiagen). […] Data was calculated using 2^−ΔΔCt , normalizing to 18S RNA and vehicle."}, "[2]": {"tested_on": "human cortical slice cultures", "assay": "Human cortical slice culture, CC1+ cells by immunohistochemistry", "type": "cell-based", "procedure": "Human donor brain was received 14 h after death on wet ice. Upon receipt, the brain was immediately placed into-ice cold DPBS without calcium or magnesium. Cortical regions containing gray-white border were isolated then sliced on a McIlwain tissue chopper set at 400 µm thickness. […] Slices were then processed for qPCR or immunohistochemistry.\nImmunohistological evaluation of oligodendrocytes in human brain slice culture: After compound treatment, slices were fixed in 4% PFA overnight. Slices were gently lifted from the membrane insert and washed with at least five 15 min washes in DPBS containing 0.5% Triton-X 100 (0.5%-DPBS) followed by overnight incubation in primary antibodies in blocking solution. Antibodies used were CC-1 (mouse, 1:250, Millipore, Temecula, CA), Olig2 (rabbit 1:250 CellMarque). Slices were washed with at least five 15 min washes in 0.5%-DPBS followed by incubation with secondary antibodies (anti-mouse Alexa488; anti-rabbit, Alexa568, and Hoechst counterstain) in 0.5%-DPBS. All secondary antibodies were produced in goat (Invitrogen, Carlsbad, CA, Carlsbad, CA) and used at 1:250. Filters were excised from insert, mounted with Fluoromount (Millipore Sigma, St. Louis) on a microscope slide and coverslipped. 2 images per slice were acquired using a Nikon A1R confocal microscope and NIS-Elements software. Images were thresholded and counted using ImageJ."}, "rat oligodendrocytes": {"tested_on": "rat oligodendrocytes", "assay": "Oligodendrocyte protection assay (TNFα/IFNγ insult)", "type": "cell-based", "settings": "TNFα and IFNγ insult", "text": "TNFα and IFNγ are two cytokines that, while not normally expressed in the CNS, are elevated in MS[29]. These cytokines can be secreted by both macrophages and microglia[30],[31]. Receptors for these cytokines (TNFR1, TNFR2, and IFNGR) are expressed in oligodendrocytes. Of note, TNFR1 and 2 have been found on oligodendrocytes bordering MS lesions[23],[32], [33]. Further, although receptor expression for these cytokines on OPCs is unknown, addition of either of these cytokines impact differentiation in isolated OPC cultures[28],[34]. Cultured rat OPCs were differentiated with T3 for 24 h then treated with both TNFα and IFNγ Upon cytokine addition, we observed significant cell death consistent with previous observations (Fig. 6C, left[22],[35]–[37]).\nOPC Assay: OPCs were plated in poly-L-lysine (Millipore Sigma, St. Louis, MO) coated 96-well Viewplates™ (Perkin Elmer, Boston, MA) at a seeding density of […] per well. Cells were maintained in media composed of DMEM (Invitrogen, Carlsbad, CA) supplemented with B27 (Invitrogen, Carlsbad, CA), N2 (Invitrogen, Carlsbad, CA), penicillin–streptomycin (Invitrogen, Carlsbad, CA), N-acetylcysteine (Millipore Sigma, St. Louis, MO), forskolin (Millipore Sigma, St. Louis, MO), and 25 ng/ml PDGF-AA (Peprotech, Cranbury, New Jersey) for 24 h at 37°, 5% CO2. Compounds were diluted 10× at a concentration range of 0.001–3 µM. […]"}, "human LPA1": {"target": "T1, human LPA1 (Homo sapiens, UniProt Q92633)", "T1 construct": "expressed in transfected cells", "T1 sequence (Q92633 whole entry)": "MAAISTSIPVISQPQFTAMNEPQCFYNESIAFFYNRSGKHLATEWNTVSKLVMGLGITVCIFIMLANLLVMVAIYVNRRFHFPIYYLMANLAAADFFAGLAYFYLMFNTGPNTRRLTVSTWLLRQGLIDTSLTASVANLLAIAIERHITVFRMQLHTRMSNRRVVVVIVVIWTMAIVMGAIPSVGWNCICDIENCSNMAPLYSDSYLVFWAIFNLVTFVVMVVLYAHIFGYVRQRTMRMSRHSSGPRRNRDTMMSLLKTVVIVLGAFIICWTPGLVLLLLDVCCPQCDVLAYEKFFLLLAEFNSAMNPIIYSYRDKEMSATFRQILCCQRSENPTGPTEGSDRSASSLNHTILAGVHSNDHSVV", "assay": "Competitive membrane filter radioligand binding assay", "settings": "membranes from cells overexpressing human LPA1, LPA1 selective radioligand", "experimental": "Binding assay: Membranes were prepared from B103 cells stably expressing human LPA1 receptor. Cells were resuspended in a hypotonic buffer containing 0.25 M sucrose/0.2 mM EDTA. After 30 min on ice, cells were centrifuged at 41,415 × g. Membrane pellet was resuspended in 20 mM HEPES, pH 7.4 storage buffer and centrifuged at 41,415 × g. Membranes were resuspended in storage buffer + 1 mM dithiothreitol. Protein was quantified using the DC Protein Assay (Bio-Rad, Hercules, CA), aliquoted, and stored at – 80 °C until assay. A tritiated LPA1 selective antagonist[10] was used as radiolabeled ligand. […] The plates were shaken at 300 rpm for 2 h at room temperature. GF/B plates assay filter plates (Perkin Elmer, Boston, MA, Waltham, MA) were prepared by adding 50 µl of 0.5% polyethylenimine (Millipore Sigma, St. Louis, MO) and incubated at room temperature for > 30 min. The assay was terminated by vacuum filtration (Brandel Harvester). Plates were washed 3 × with 2 ml ice cold buffer containing 50 mM HEPES + 100 mM NaCl + 2 mM EDTA, pH 7.4. Once dry, 50 µl of Betaplate Scintillation Cocktail (Perkin Elmer, Boston, MA) was added to each well. After a 20 min incubation, plates were read on the Perkin Elmer TopCount."}, "microglia": {"tested_on": "microglia", "assay": "LPA-induced microglial activation in hippocampal slices", "type": "cell-based, mouse", "settings": "3 µM, 10 µM LPA", "procedure": "Microglial activation was then triggered by the addition of 10 µM LPA, slices incubated for 3 additional hours, then fixed. Slices were immunostained against IBA1 and microglial perimeters were measured as a mean of differentiating between ramified/resting versus rounded/activated microglia.\nBrains were harvested from mice (postnatal day 20, Charles River). […] 400 µm thick coronal slices were cut on a McIlwain tissue chopper and returned to dissection media and separated manually. […] Slices were incubated for 2 h at 37 °C (4 slices per condition). Microglial activation was initiated by adding LPA (18:1, Avanti Polar Lipids) to a final concentration of 10 µM and incubated for 3 h. Slices were then fixed in formalin and for 2 h.\nFor immunohistochemistry, slices were washed for 3 × 15 min in 0.5% Triton-X100 and DPBS. Slices were then stained using IBA-1 antibody (Thermo Scientific) in 10% normal goat serum with 0.5% Triton-X100 in DPBS overnight on a rocker. Slices were then washed in 0.5% Triton-X100 in DPBS 3 × 15 min. Goat anti-mouse Alexa 564 (1:500, Invitrogen, Carlsbad, CA) and […] (Invitrogen, Carlsbad, CA) were diluted in DPBS with 0.5% Triton-X100 and incubated for 2h. Slices were washed 3 × 15 min in DPBS with 0.5% Triton-X100, mounted with Fluoromount and imaged on a Nikon A1R confocal microscope."}}, "note": "Entries after “also recorded” stand apart in the source; their conditions may differ. Like-named read-outs stand apart in the source and are kept apart here."}
{"compound": "COc1ccc(NC(=O)N(c2ccccc2C(C)C)C2CCC(C(=O)O)CC2)c(OC(F)F)n1", "note": "(stereo not shown) [PIPE-791]", "values": [{"measurement": "EC50", "setting": "[1]", "result": 12.1, "unit": "nM"}, {"measurement": "CC1+ cells", "setting": "[2]; 100 nM", "result": "significant increase"}, {"measurement": "differentiation by number of CC1+ cells", "setting": "[2]; 300 nM", "result": "significant differentiation"}, {"measurement": "EC50", "setting": "rat oligodendrocytes; data not shown, read-out: EC50 of total cellular viability with Alamar blue", "result": 39.6, "unit": "nM"}, {"measurement": "EC50", "setting": "rat oligodendrocytes; read-out: EC50 of protection of MBP+ oligodendrocytes", "result": 125, "unit": "nM"}, {"measurement": "IC50", "setting": "human LPA1", "result": 2.63, "unit": "nM"}, {"measurement": "effect on LPA-induced decrease in microglial perimeter length", "setting": "microglia", "result": "inhibited; also recorded: prevented"}]}
